pEC50: −log10 of the molar value.
Columns and labels:
Experiment in all cases: two-electrode voltage clamp, Xenopus oocytes, dose-response
Assay type in all cases: cell-based, Mythimna separata
MsepPR1 = test system: T1, MsepPR1
T1 construct: full-length; with MsepOrco

MsepPR5 = test system: T2, MsepPR5
T2 construct: full-length; with MsepOrco

MsepPR6 = test system: T3, MsepPR6
T3 construct: full-length; with MsepOrco

CCCC/C=C\CCCCCCCC=O [Z9–14:Ald, (Z)-9-tetradecenal]
pEC50 (MsepPR1): 4.31 | pEC50 (MsepPR5): 4.52

CCCC/C=C\CCCCCCCCOC(C)=O [Z9–14:OAc, (Z)-9-tetradecen-1-yl acetate]
pEC50 (MsepPR6): 6.13

From PMC8113758, “Functional Characterization of Sex Pheromone Neurons and Receptors in the Armyworm, Mythimna separata (Walker)” (Frontiers in Neuroanatomy, 2021)
